According to the supplement of paper PMC13380429:

Tests used:
U2OS [1] = experiment: cell viability relative to DMSO; higher = less toxic; settings: 72 h
Vero E6 [2] = experiment: as above; settings: 72 h
Calu-3 [3] = experiment: as above; settings: 72 h
Caco-2 [4] = experiment: as above; settings: 72 h
HepG2 [5] = experiment: as above; settings: 72 h
[6] = tested on: A549-ACE2 infected with SARS-CoV-2; experiment: morphology score (similarity to uninfected cells); higher = more like uninfected cells; settings: 24 h
[7] = tested on: A549-ACE2 infected with SARS-CoV-2; experiment: cell count relative to DMSO; higher = less toxic; settings: 24 h
A549-ACE2 = experiment: drug-induced phospholipidosis relative to tamoxifen; higher = more phospholipidosis
[8] = tested on: A549-ACE2 infected with SARS-CoV-2; experiment: SARS-CoV-2 infection rate relative to DMSO; higher = more infection; settings: 24 h
U2OS [9] = experiment: drug sensitivity score (DSS) for viability; higher = more toxic; extreme values may be limits of the assay; settings: 72 h
Vero E6 [10] = experiment: as above; settings: 72 h
Calu-3 [11] = experiment: as above; settings: 72 h
Caco-2 [12] = experiment: as above; settings: 72 h
HepG2 [13] = experiment: as above; settings: 72 h
U2OS [14] = experiment: relative viability EC50 (midpoint between 100% and the lowest measured viability); higher = less toxic; settings: 72 h
Vero E6 [15] = experiment: as above; settings: 72 h
Calu-3 [16] = experiment: as above; settings: 72 h
HepG2 [17] = experiment: as above; settings: 72 h
Caco-2 [18] = experiment: as above; settings: 72 h

CCCCCC(=O)O[C@]1(C(C)=O)CC[C@H]2[C@@H]3CCC4=CC(=O)CC[C@]4(C)[C@H]3CC[C@@]21C [17-hydroxyprogesterone-caproate]
Settings | SARS-CoV-2 infection rate, [8] [%] | cell count, [7] [%] | cell viability, Caco-2 [4] [%] | cell viability, Calu-3 [3] [%] | cell viability, HepG2 [5] [%] | cell viability, U2OS [1] [%] | cell viability, Vero E6 [2] [%] | morphology score, [6]
1 nM | – | – | 92.7 | 86.9 | 97.1 | 98.1 | 97.8 | –
10 nM | – | – | 95.9 | 99 | 96.6 | 95.7 | 103 | –
100 nM | – | – | 107 | 100 | 98 | 99.7 | 95.1 | –
0.3 µM | 95 | 103 | – | – | – | – | – | 0.25
1000 nM | – | – | 92.8 | 88.6 | 97.6 | 99.4 | 95.4 | –
3 µM | 88 | 104 | – | – | – | – | – | 0.34
10000 nM | – | – | 64.7 | 99.5 | 94.8 | 95.9 | 103 | –
10 µM | 81 | 106 | – | – | – | – | – | 0.47
30 µM | 34 | 104 | – | – | – | – | – | 0.79

drug-induced phospholipidosis [%], A549-ACE2
Settings | 0.3 µM | 0.833333 µM | 3.33333 µM | 6.66667 µM | 10 µM | 30 µM
24 h | 6.66 | 6.09 | 4.63 | 8.81 | 8.05 | 21.5
48 h | 5.77 | 4.75 | 0.98 | 3.88 | 3.43 | 9.55
72 h | 6.76 | 2.38 | 2.24 | 4.3 | 4.77 | 13.6

Settings | drug sensitivity score | relative viability EC50 [µM]
Caco-2 [12] | 2.8 | –
Calu-3 [11] | 0 | –
Calu-3 [16] | – | > 10
HepG2 [13] | 0 | –
HepG2 [17] | – | > 10
U2OS [9] | 0 | –
U2OS [14] | – | > 10
Vero E6 [10] | 0 | –
Vero E6 [15] | – | > 10

C=CC(=O)N1CCN(C(=O)CNc2cc(I)c(Cl)cc2O)CC1 [K-Ras(G12C)-inhibitor-12]
Settings | SARS-CoV-2 infection rate, [8] [%] | cell count, [7] [%] | cell viability, Caco-2 [4] [%] | cell viability, Calu-3 [3] [%] | cell viability, HepG2 [5] [%] | cell viability, U2OS [1] [%] | cell viability, Vero E6 [2] [%] | morphology score, [6]
1 nM | – | – | 102 | 112 | 95.2 | 108 | 101 | –
10 nM | – | – | 96.3 | 103 | 98.1 | 96.9 | 107 | –
100 nM | – | – | 106 | 104 | 88.2 | 104 | 90.2 | –
0.3 µM | 74 | 109 | – | – | – | – | – | 0.34
1000 nM | – | – | 88.3 | 75.5 | 72.8 | 96.6 | 54.1 | –
3 µM | 86 | 93 | – | – | – | – | – | 0.05
10000 nM | – | – | 76.6 | 79.5 | 42.8 | 93.5 | 40.1 | –
10 µM | 76 | 93 | – | – | – | – | – | 0.03
30 µM | 77 | 85 | – | – | – | – | – | -0.03

drug-induced phospholipidosis [%], A549-ACE2
Settings | 0.3 µM | 0.833333 µM | 3.33333 µM | 6.66667 µM | 10 µM | 30 µM
24 h | 8.49 | 7.52 | 10 | 12 | 13.7 | 24
48 h | 5.08 | 2.66 | 7.02 | 10.2 | 11.5 | 19.6
72 h | 5.88 | 1.74 | 5.37 | 8.06 | 13.5 | 16

Settings | drug sensitivity score | relative viability EC50 [µM]
Caco-2 [12] | 2.2 | –
Caco-2 [18] | – | > 10
Calu-3 [11] | 3.5 | –
Calu-3 [16] | – | > 10
HepG2 [13] | 6.5 | –
HepG2 [17] | – | 0.805
U2OS [9] | 0 | –
U2OS [14] | – | > 10
Vero E6 [10] | 9.6 | –
Vero E6 [15] | – | 0.388

CC[C@@]1([C@H]2O[C@H]([C@H]3O[C@@](O)(CO)[C@H](C)C[C@@H]3C)C[C@H]2C)CC[C@H]([C@@]2(C)CC[C@]3(C[C@H](O)[C@@H](C)[C@@H]([C@H](C)[C@H](OC)[C@@H](C)C(=O)O)O3)O2)O1 [MONENSIN SODIUM]
Settings | SARS-CoV-2 infection rate, [8] [%] | cell count, [7] [%] | cell viability, Caco-2 [4] [%] | cell viability, Calu-3 [3] [%] | cell viability, HepG2 [5] [%] | cell viability, U2OS [1] [%] | cell viability, Vero E6 [2] [%] | morphology score, [6]
1 nM | – | – | 93.9 | 99 | 94.6 | 99.5 | 96.7 | –
10 nM | – | – | 93.4 | 93.1 | 107 | 96.2 | 103 | –
100 nM | – | – | 109 | 89.9 | 91.8 | 99.3 | 95.6 | –
0.3 µM | 50 | 114 | – | – | – | – | – | 0.72
1000 nM | – | – | 56.9 | 68 | 82.9 | 97.1 | 103 | –
3 µM | 61 | 108 | – | – | – | – | – | 0.85
10000 nM | – | – | 20.9 | 36.9 | 26.2 | 35.4 | 102 | –
10 µM | 25 | 115 | – | – | – | – | – | 0.83
30 µM | 17 | 119 | – | – | – | – | – | 0.82

drug-induced phospholipidosis [%], A549-ACE2
Settings | 0.3 µM | 0.833333 µM | 3.33333 µM | 6.66667 µM | 10 µM | 30 µM
24 h | -1.18 | -1.15 | 0.94 | 1.15 | -4.98 | -12.7
48 h | 5.4 | 3.73 | 5.09 | -3.84 | -2.31 | -14.7
72 h | 6.27 | 4.79 | 7.82 | – | – | –

Settings | drug sensitivity score | relative viability EC50 [µM]
Caco-2 [12] | 9.7 | –
Caco-2 [18] | – | 0.934
Calu-3 [11] | 7.5 | –
Calu-3 [16] | – | 0.789
HepG2 [13] | 6.8 | –
HepG2 [17] | – | 1.61
U2OS [9] | 3.9 | –
U2OS [14] | – | 2.83
Vero E6 [10] | 0 | –
Vero E6 [15] | – | > 10

CN1C2C=C(c3sccc3Br)CC1CC2 (centres undefined) [NS-3861]
Settings | SARS-CoV-2 infection rate, [8] [%] | cell count, [7] [%] | cell viability, Caco-2 [4] [%] | cell viability, HepG2 [5] [%] | cell viability, U2OS [1] [%] | cell viability, Vero E6 [2] [%] | morphology score, [6]
1 nM | – | – | 101 | 107 | 97.6 | 98.9 | –
10 nM | – | – | 103 | 107 | 101 | 99.5 | –
100 nM | – | – | 92.4 | 97.2 | 95.3 | 99 | –
0.3 µM | 97 | 99 | – | – | – | – | 0
1000 nM | – | – | 106 | 89.2 | 100 | 96.7 | –
3 µM | 83 | 109 | – | – | – | – | 0.45
10000 nM | – | – | 101 | 92.5 | 94.6 | 97.2 | –
10 µM | 75 | 104 | – | – | – | – | 0.4
30 µM | 41 | 113 | – | – | – | – | 0.77

drug-induced phospholipidosis [%], A549-ACE2
Settings | 0.3 µM | 0.833333 µM | 3.33333 µM | 6.66667 µM | 10 µM | 30 µM
24 h | 1.11 | -3.88 | -0.69 | -1.21 | 2.15 | 14.7
48 h | 2.52 | -3.07 | -1.18 | -0.52 | -0.04 | 12.8
72 h | 4.83 | -2.54 | -0.115 | 0.151 | 0.487 | 12.9

Settings | drug sensitivity score | relative viability EC50 [µM]
Caco-2 [12] | 0 | –
Caco-2 [18] | – | > 10
HepG2 [13] | 0.3 | –
HepG2 [17] | – | > 10
U2OS [9] | 0 | –
U2OS [14] | – | > 10
Vero E6 [10] | 0 | –
Vero E6 [15] | – | > 10
